Experimental data from PMC8000448, “Inhibitory Effects of Schisandra Lignans on Cytochrome P450s and Uridine 5′-Diphospho-Glucuronosyl Transferases in Human Liver Microsomes” (Pharmaceutics, 2021).
Read-outs that look alike come from different tables or passages of the source.

How the values were obtained:
UGT1A3 [1] = target: T1, UGT1A3 (Homo sapiens, UniProt P35503); assay: UGT1A3 inhibition in HLMs (chenodeoxycholic acid); format: in vitro ADME; conditions: average in triplicate, read-out: IC50, UGT 1A3
T1 construct: pooled HLMs (0.25 mg/mL); tissue XenoTech H2630; host or cells: pooled human liver microsomes, mixed gender
T1 sequence (P35503 29-534): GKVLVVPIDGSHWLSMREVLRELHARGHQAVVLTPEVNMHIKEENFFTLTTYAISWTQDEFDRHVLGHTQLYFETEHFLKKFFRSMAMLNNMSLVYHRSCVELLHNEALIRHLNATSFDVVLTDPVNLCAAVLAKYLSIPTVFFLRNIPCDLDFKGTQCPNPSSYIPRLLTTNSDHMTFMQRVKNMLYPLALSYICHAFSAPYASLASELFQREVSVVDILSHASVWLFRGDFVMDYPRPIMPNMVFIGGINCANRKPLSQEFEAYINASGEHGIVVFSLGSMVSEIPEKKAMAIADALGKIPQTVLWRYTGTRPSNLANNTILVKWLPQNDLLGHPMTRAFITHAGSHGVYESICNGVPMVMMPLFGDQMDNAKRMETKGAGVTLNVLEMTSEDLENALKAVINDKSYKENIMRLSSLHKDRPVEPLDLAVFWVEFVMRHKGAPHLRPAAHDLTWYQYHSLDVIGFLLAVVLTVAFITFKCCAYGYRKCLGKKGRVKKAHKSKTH
Procedure: (§1) The inhibitory potential of six lignans on six UGT activities was evaluated using the previously developed cocktail method with slight modifications. […] These substrates are known to be selective for each UGT isoforms.

CYP2D6 [2] = target: CYP2D6 (Homo sapiens, UniProt P10635); assay: CYP2D6 inhibition in HLMs (dextromethorphan)
Sequence of CYP2D6 (Homo sapiens, UniProt P10635) (P10635 whole entry): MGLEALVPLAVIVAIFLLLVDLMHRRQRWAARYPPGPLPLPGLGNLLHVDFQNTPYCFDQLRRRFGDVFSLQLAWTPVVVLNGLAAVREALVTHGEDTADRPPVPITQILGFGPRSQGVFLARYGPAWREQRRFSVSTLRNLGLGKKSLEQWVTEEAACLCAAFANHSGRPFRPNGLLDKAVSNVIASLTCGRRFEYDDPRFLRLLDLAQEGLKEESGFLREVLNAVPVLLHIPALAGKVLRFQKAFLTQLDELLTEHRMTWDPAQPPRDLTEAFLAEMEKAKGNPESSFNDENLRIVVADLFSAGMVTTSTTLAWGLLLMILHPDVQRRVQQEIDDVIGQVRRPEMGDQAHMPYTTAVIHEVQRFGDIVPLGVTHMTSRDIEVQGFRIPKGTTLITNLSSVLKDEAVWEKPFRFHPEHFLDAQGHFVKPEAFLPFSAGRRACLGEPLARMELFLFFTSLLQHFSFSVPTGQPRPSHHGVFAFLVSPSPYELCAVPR
Procedure: (§3) Lignans were first dissolved in methanol. The final organic solvent concentration in the incubation media was ≤1.0% (v/v). The microsomal incubation was conducted using two cocktail sets containing non-interactive substrates: set A containing phenacetin, bupropion, amodiaquine, diclofenac, S-mephenytoin, and dextromethorphan as substrates for CYP1A2, CYP2B6, CYP2C8, CYP2C9, CYP2C19, and CYP2D6, respectively; and set B containing coumarin and chlorzoxazone as substrates for CYP2A6 and CYP2E1, and midazolam, nifedipine, and testosterone as substrates for CYP3A4 (Table 1). These substrates are known to be selective for each P450 isoforms. Incubation mixtures containing potassium phosphate buffer (0.1 M, pH 7.4), pooled HLMs (0.25 mg/mL), P450 probe substrate cocktails, and lignan (0~50 μM) were pre-incubated at 37 °C (5 min). Following pre-incubation, an NADPH generating system (1.3 mM NADP^+, 3.3 mM G6P, 1 unit/mL G6PDH, and 3.3 mM MgCl2) was added to initiate the reaction, and further incubated for 10 min. The reaction was quenched with 50 μL of cold acetonitrile containing internal standard (IS; 7 nM trimipramine). After centrifugation at 14,000 rpm (5 min at 4 °C), aliquots of supernatants were filtered through a 0.2 μm membrane filter and were measured by liquid chromatography-tandem mass spectrometry (LC-MS/MS). All microsomal incubations were performed in triplicate.

CYP3A [3] = system: CYP3A; parameters: method as in PMID 20448858; conditions: read-out: IC50, CYP3A-mediated midazolam hydroxylation; cited from earlier work
CYP2C9 [4] = target: CYP2C9 (Homo sapiens, UniProt P11712); assay: in vitro; conditions: microsomes, pH 7.4, IC50 Shift
Sequence of CYP2C9 (Homo sapiens, UniProt P11712) (P11712 whole entry): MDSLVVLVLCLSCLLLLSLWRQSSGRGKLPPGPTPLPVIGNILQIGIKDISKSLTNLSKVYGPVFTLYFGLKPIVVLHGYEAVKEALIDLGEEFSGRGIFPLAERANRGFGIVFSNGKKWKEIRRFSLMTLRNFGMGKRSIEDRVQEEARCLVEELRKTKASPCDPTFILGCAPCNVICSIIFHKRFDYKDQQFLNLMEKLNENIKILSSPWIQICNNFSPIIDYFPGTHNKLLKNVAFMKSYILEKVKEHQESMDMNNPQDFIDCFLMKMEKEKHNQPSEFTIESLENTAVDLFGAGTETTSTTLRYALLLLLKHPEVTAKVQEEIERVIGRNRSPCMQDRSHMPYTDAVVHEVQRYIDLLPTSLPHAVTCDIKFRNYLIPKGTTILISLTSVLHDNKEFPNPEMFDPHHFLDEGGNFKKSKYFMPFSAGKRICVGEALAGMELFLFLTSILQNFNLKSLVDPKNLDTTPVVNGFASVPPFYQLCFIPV
Procedure: as §3

CYP2D6 [5] = system: CYP2D6; parameters: method as in PMID 15342469; conditions: cited from earlier work
CYP2C19 [6] = system: CYP2C19; parameters: method as in PMID 15342469; conditions: cited from earlier work
CYP3A [7] = conditions: rats; cited from earlier work
CYP2C9 [8] = system: CYP2C9; parameters: method as in PMID 15342469; conditions: cited from earlier work
CYP1A2 = system: CYP1A2; parameters: method as in PMID 15342469; conditions: cited from earlier work
CYP2C19 [9] = target: CYP2C19 (Homo sapiens, UniProt P33261); assay: in vitro; conditions: microsomes, pH 7.4, IC50 Shift
Sequence of CYP2C19 (Homo sapiens, UniProt P33261) (P33261 whole entry, canonical isoform): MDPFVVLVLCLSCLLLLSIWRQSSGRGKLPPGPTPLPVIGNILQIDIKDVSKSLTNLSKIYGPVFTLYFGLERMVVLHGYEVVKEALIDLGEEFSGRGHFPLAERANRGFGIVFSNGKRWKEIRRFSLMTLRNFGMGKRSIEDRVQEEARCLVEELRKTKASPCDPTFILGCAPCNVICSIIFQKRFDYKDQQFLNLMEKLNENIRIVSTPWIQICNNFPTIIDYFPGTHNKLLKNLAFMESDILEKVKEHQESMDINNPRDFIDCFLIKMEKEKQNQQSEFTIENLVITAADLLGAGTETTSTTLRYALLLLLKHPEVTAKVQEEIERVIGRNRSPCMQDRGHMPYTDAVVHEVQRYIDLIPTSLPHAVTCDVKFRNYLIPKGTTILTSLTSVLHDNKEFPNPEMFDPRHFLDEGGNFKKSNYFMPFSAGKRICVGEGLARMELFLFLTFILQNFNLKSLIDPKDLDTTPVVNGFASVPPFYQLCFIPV
Procedure: as §3

recombinant CYP3A4 [10] = conditions: recombinant CYP3A4 isoform; read-out: IC50, CYP3A-mediated midazolam 1′-hydroxylation; cited from earlier work
CYP3A4 = conditions: in the presence of the inhibitor; cited from earlier work
CYP3A [11] = system: CYP3A; parameters: method as in PMID 15342469; conditions: read-out: IC50, CYP3A-mediated testosterone hydroxylase activity; cited from earlier work
UGT1A3 [12] = system: UGT1A3; parameters: method as in PMID 23339253; conditions: cited from earlier work
six UGT enzymes = assay: UGT inhibition in HLMs, summary statements over several isoforms; format: in vitro ADME, human; conditions: UGTs other than UGT1A1 and UGT1A3
Procedure: as §1

nine P450 enzymes = assay: P450 inhibition in HLMs, summary statements over several isoforms; format: in vitro ADME, human; conditions: HLMs pre-incubated in the presence of NADPH
Procedure: (§2) Lignans were first dissolved in methanol. […] All microsomal incubations were performed in triplicate.

[13] = system: P450s other than CYP1A2, CYP2B6, CYP2C19, CYP2E1 and CYP3A (range over several isoforms); assay: as above; format: in vitro ADME, human; conditions: human, pooled human liver microsomes, pH 7.4, probe P450 probe substrate cocktails (sets A and B); HLMs; reversible inhibition; P450s other than CYP1A2, CYP2B6, CYP2C19, CYP2E1 and CYP3A
Procedure: as §2

recombinant CYP3A4 [14] = conditions: rCYP3A4, fluorescent substrate; cited from earlier work
[15] = IC50 TDI, 30 min pre-incubation with NADPH generating system

Structure (SMILES) | IC50 (UGT1A3 [1]) [µM] | IC50 (CYP2D6 [2]; IC50 RI, reversible inhibition) [µM] | IC50 (CYP2D6 [2]; [15]) [µM] | IC50 (CYP3A [3]) [µM] | IC50 shift at 10 min (CYP2C9 [4]) | IC50 (CYP2D6 [5]) [µM] | IC50 (CYP2C19 [6]) [µM] | Oral bioavailability of drugs metabolized by CYP3A, including midazolam (CYP3A [7]) | IC50 (CYP2C9 [8]) [µM] | IC50 (CYP1A2) [µM] | IC50 shift at 10 min (CYP2C19 [9]) | IC50 (recombinant CYP3A4 [10]) [µM] | Estimated increase of AUC of drugs predominantly biotransformed by CYP3A4 (CYP3A4) | IC50 (CYP3A [11]) [µM] | IC50 (UGT1A3 [12]) [µM] | IC50 (six UGT enzymes) [µM] | Inhibitory potential against nine P450s after pre-incubation with NADPH compared to untreated HLMs (nine P450 enzymes) | IC50 at 10 min [13] [µM] | IC50 (recombinant CYP3A4 [14]) [µM]
COc1c2c(cc3c1-c1c(cc4c(c1OC)OCO4)C[C@H](C)[C@H](C)C3)OCO2 [Wuweizisu C, wuweizisu C] | > 50 | 20.3 | 28.2 | – | – | – | – | – | – | – | – | – | – | – | – | – | – | – | –
COc1cc2c(c(OC)c1OC)-c1c(cc3c(c1OC)OCO3)C[C@H](C)[C@H](C)C2 [Gomisin N, gomisin N] | 26.9 | 42 | > 50 | 5.5 | > 1.8 | > 10 | > 10 | increase | > 10 | > 10 | > 1.8 | – | – | – | – | – | – | – | –
COc1cc2c(c(OC)c1OC)-c1c(cc3c(c1OC)OCO3)C[C@H](C)[C@](C)(O)[C@H]2OC(=O)c1ccccc1 [Gomisin C, gomisin C] | 15 | > 50 | > 50 | – | – | > 10 | > 10 | – | > 10 | > 10 | – | 0.059 | 22–321% | 0.26 to 0.62 | 12.5 | > 50 | – | – | –
COc1cc2c(c(OC)c1OC)-c1c(cc(OC)c(OC)c1OC)C[C@](C)(O)[C@@H](C)C2 [Schisandrin, schisandrin] | > 50 | 40.2 | > 50 | – | – | – | – | – | – | – | – | – | – | – | – | – | did not increase | 22 to 43 | 32
